Consider 17 compounds from ChEMBL document CHEMBL4425139, “Discovery, characterization, and lead optimization of 7-azaindole non-nucleoside HIV-1 reverse transcriptase inhibitors” (Bioorg Med Chem Lett, 2016).

For data set [1], the target named is T1, Human immunodeficiency virus type 1 reverse transcriptase (Human immunodeficiency virus 1, UniProt Q72547). The experiment in a line: Inhibition of HIV1 RT using 17-mer DNA/Alexa Fluor 488 5'-end labeled DNA/Alexa Fluor 555-aha-dUTP as primer/template/substrate preincubated for 10 mins followed substarte addition measured after 30 mins by FRET assay.
For data set [2], the system named is PBMC. The experiment in a line: (§1) Cytotoxicity against HIV1 infected human PBMC cells assessed as reduction in cell viability after 7 days by MTT assay. The class given is cell-based. The conditions noted are these: pbmc, 168 h.
For data set [3], the system named is Vero. The experiment in a line: (§2) Cytotoxicity against HIV1 infected African green monkey Vero cells assessed as reduction in cell viability after 7 days by MTT assay. The class given is cell-based. The settings on record: chlorocebus sabaeus, vero, 168 h.
The subject of data set [4] is CCRF-CEM. The experiment in a line: (§3) Cytotoxicity against HIV1 infected human CEM cells assessed as reduction in cell viability after 7 days by MTT assay. The class given is cell-based. The settings on record: ccrf-cem, 168 h.
Data set [5] has as its system Human immunodeficiency virus 1. The experiment in a line: Antiviral activity against HIV-1 LAI infected in human PBM cells after 7 days. The class given is functional, organism-based. The settings on record: Human immunodeficiency virus 1, LAI, 168 h.
The nature of data set [6]: Ratio of CC50 for human PBM cells to EC50 for HIV-1 LAI infected in human PBM cells.
Data set [7] in a line: as §1. The conditions noted are these: HIV1 infected PBMC cells. The class given is cell-based.
A short description of data set [8]: as §2. The class given is cell-based. The conditions noted are these: chlorocebus sabaeus, HIV1 infected Vero cells.
Data set [9] in a line: as §3. The class given is cell-based, CCRF-CEM. The conditions noted are these: HIV1 infected CEM (CCRF-CEM) cells.
The target in data set [10] is Human immunodeficiency virus type 1 reverse transcriptase (Human immunodeficiency virus 1, UniProt Q72547, E138K).
Data set [11] addresses T1, Human immunodeficiency virus type 1 reverse transcriptase. Description: Inhibition of HIV1 RT using A5'-end 32P-labeled 24-mer primer/a48-mer template preincubated for 5 mins followed by 0.5 uM nucleotides addition measured after 15 mins by gel-based primer extension assay.
Data set [12] has as its system Human immunodeficiency virus 1.
Data set [13] deals with Human immunodeficiency virus 1. The experiment in a line: Ratio of IC50 for HIV1 RT E138K mutant to IC50 for wild type HIV1 RT.
Data set [14] addresses T1, Human immunodeficiency virus type 1 reverse transcriptase. The experiment in a line: Inhibition of HIV1 RT using A5'-end 32P-labeled 24-mer primer/a48-mer template preincubated for 5 mins followed by 1 uM nucleotides addition measured after 10 mins by gel-based primer extension assay.
Data set [15] deals with Human immunodeficiency virus type 1 reverse transcriptase (Human immunodeficiency virus 1, UniProt Q72547, K103N).
Data set [16] concerns the target Human immunodeficiency virus type 1 reverse transcriptase (Human immunodeficiency virus 1, UniProt Q72547, V108I).
The test system of data set [17] is Human immunodeficiency virus 1. Description: Ratio of IC50 for HIV1 RT K103N mutant to IC50 for wild type HIV1 RT.
The target of data set [18] is T1, Human immunodeficiency virus type 1 reverse transcriptase. The experiment in a line: Inhibition of HIV1 RT using A5'-end 32P-labeled 24-mer primer/a48-mer template preincubated for 5 mins followed by 25 uM nucleotides addition measured after 2 mins by gel-based primer extension assay.
Data set [19] has the same target. The experiment in a line: Inhibition of HIV1 RT using A5'-end 32P-labeled 24-mer primer/a48-mer template preincubated for 5 mins followed by 10 uM nucleotides addition measured after 5 mins by gel-based primer extension assay.

Structures are written as SMILES.

On to `CC1(C)CC(=O)c2cc3c(C#N)cn(Cc4ccccc4)c3nc2C1`, for which the IC50 in data set [1] turned out to be 12 µM. Also, the half-maximal cytotoxic concentration (CC50) is more than 100 µM in data set [2], more than 100 µM in [3] and 3.7 µM in data set [4]. A half-maximal response in data set [5] (EC50) required 0.91 µM. Moreover, the “Ratio CC50/EC50” value in data set [6] is more than 100.
Turning to `CC(C)(C)n1cc(C#N)c2cc(C=O)cnc21`, 14 µM corresponded to half-maximal inhibition in data set [1] (IC50). Also, the CC50 is more than 100 µM in [2], 8.1 µM in [3] and more than 100 µM in [4]. In data set [5], the EC50 came out at 0.49 µM. Moreover, the “Ratio CC50/EC50” value in [6] is recorded as more than 100.
Consider `CCCc1c2c(nc3c1c(C#N)cn3C1CCCCC1)CCC2=O`, for which the IC50 in [1] was more than 100 µM. In addition, the CC50 in data set [2], in data set [3] and in [4] was more than 100 µM throughout. In addition, in [5], the EC50 is 0.69 µM. In addition, in data set [6], the “Ratio CC50/EC50” value is listed as more than 100.
`C=CCn1cc(C#N)c2cc(C#N)cnc21` returned an IC50 in [1] of more than 100 µM. In addition, the CC50 in data set [2], in data set [3] and in data set [4] was more than 100 µM in each case. For the same compound, a half-maximal response in data set [5] (EC50) required 0.76 µM. Also, the “Ratio CC50/EC50” value in [6] was more than 100.
For the compound `CC(=O)c1cc2c(-c3ccc(N(C)C)cc3)c3c(nc2[nH]1)-c1ccccc1C3=O`, half-maximal inhibition in data set [1] (IC50) was put at 15 µM. The CC50 in data set [2] was more than 100 µM; in data set [3], 11 µM; in data set [4], 24 µM. For the same compound, in [5], the EC50 was determined as 0.93 µM. Moreover, the “Ratio CC50/EC50” value in [6] is listed as more than 100.
In [1], `CC1(C)CC(=O)c2c(nc3c(c(C#N)cn3Cc3ccccc3)c2-c2c(F)cccc2F)C1` displayed an IC50 of 0.36 µM. Further, the EC50 in data set [5] stood at 0.46 µM.
For `N#Cc1cn(Cc2ccccc2)c2ncc(Br)cc12`, the IC50 in data set [1] was more than 100 µM. The CC50 in data set [2], in [3] and in data set [4] was more than 100 µM in each case. Also, the response in [5] was half-maximal at 0.47 µM (EC50). Also, in [6], the “Ratio CC50/EC50” value is on record as more than 100.
Consider `CC1(C)CC(=O)c2c(nc3c(c(C#N)cn3Cc3ccccc3)c2-c2ccc([N+](=O)[O-])cc2)C1`, for which the IC50 in [1] worked out at 1.4 µM.
Compound `Cc1ccc(-c2cnc3c(c2)c(C#N)cn3Cc2ccccc2)cc1` returned an IC50 in [1] of more than 100 µM. Also, the CC50 is more than 100 µM in data set [2], 8.1 µM in data set [3] and more than 100 µM in [4]. The compound further yielded an EC50 in [5] of 0.49 µM. The “Ratio CC50/EC50” value in data set [6] is more than 100.
In data set [1], `CC1(C)CC(=O)c2c(nc3c(c(C#N)cn3Cc3ccccc3)c2-c2ccc(F)cc2)C1` had an IC50 of 2.9 µM.
Regarding `O=C1Nc2ccc(Cl)cc2[C@@](C#CC2CC2)(C(F)(F)F)O1` [EFAVIRENZ], the CC50 in data set [2], in data set [3] and in data set [4] was more than 100 µM each time.
In [1], `Cc1cccc(C)c1-c1c2c(nc3c1c(C#N)cn3Cc1ccccc1)CC(C)(C)CC2=O` registered an IC50 of 26 µM. In addition, the EC50 in data set [5] is more than 100 µM.
`Cc1ccnc2c1NC(=O)c1cccnc1N2C1CC1` [NEVIRAPINE]: the CC50 at 168 h in data set [7], in [8] and in data set [9] was more than 100 µM in each case. The EC50 in data set [5] is 0.04 µM.
As to `CC1(C)CC(=O)c2c(nc3c(c(C#N)cn3Cc3ccccc3)c2-c2ccccc2)C1`, the IC50 in data set [10] is 69 µM; in data set [11] it was 10 µM; in [1], 0.73 µM; in data set [14], 8.9 µM; in data set [15], 9.2 µM; in [16], more than 100 µM. For the same compound, the values for the IC50 in [18] and in data set [19] were 0.73 µM and 0.96 µM, respectively. The Ratio IC50 in [12] was found to be 11; in data set [13] it was 211; in [17], 28. For the same compound, the CC50 in [2], in data set [3] and in [4] was more than 100 µM throughout. The response in data set [5] was half-maximal at 0.35 µM (EC50). In addition, the “Ratio CC50/EC50” value in data set [6] was more than 100.
`CCCCn1cc(C#N)c2c(-c3ccc(C(F)(F)F)cc3F)c3c(nc21)-c1ccccc1C3=O`: the IC50 in data set [10] is more than 100 µM; in data set [1], 0.58 µM; in data set [15] it was 28 µM; in data set [16], more than 100 µM. The CC50 in [2] is more than 100 µM; in data set [3], 6.8 µM; in data set [4], 48 µM. The Ratio IC50 in [17] worked out at 49. This compound had an EC50 in data set [5] of 0.83 µM. The “Ratio CC50/EC50” value in [6] is more than 100.
As for `CC1(C)CC(=O)c2c(nc3c(c(C#N)cn3Cc3ccccc3)c2-c2cccc(Cl)c2)C1`, the IC50 in data set [1] stood at 58 µM. Besides, the EC50 in data set [5] was 1 µM.
Take `CC(=O)c1c(C)nc2c(c(C#N)cn2Cc2ccccc2)c1-c1ccc([N+](=O)[O-])cc1`: the IC50 in data set [10] was 59 µM; in data set [1], 6.3 µM; in [15] it was 15 µM; in [16], more than 100 µM. The Ratio IC50 in [12] was determined as 12; in data set [13] it was 9.4; in data set [17], 2.4. Further, the CC50 in data set [2], in [3] and in [4] was more than 100 µM each time. This compound showed an EC50 in data set [5] of 0.19 µM. Besides, the “Ratio CC50/EC50” value in data set [6] is more than 100.
